Assay results as given in patent US5583101A, “Use of nitrogen oxide species and adducts to inhibit skeletal muscle contraction” (Harvard College, priority 1994, dated 1996).

Columns and labels:
[1] = test system: rat diaphragm fiber bundles; experiment: Force developed at 40 Hz (submaximal tetanic contraction) by diaphragm fiber bundles; assay type: cell-based
Procedure: FIGS. 3A and 3B. […] Direct field stimulation (0.2 ms pulses, 250 ms train duration, supramaximal voltage) was used to evoke twitch (1 Hz) and tetanic (15, 30, 40, 50, 80, 120, 200 Hz) contractions. Isometric force was measured. Upper panel (A) depicts the average forces (+/-SE) developed at frequencies of 1-200 Hz. […] A vertical dotted line identifies the frequency (40 Hz) used in comparisons of NOS activity.
FIGS. 4A and 4B. […] Fiber bundles were isolated from rat diaphragm and studied using methods described in FIG. 3. Panel A depicts the average forces (+SE) developed at stimulus frequencies of 1-120 Hz by muscles incubated in Krebs-Ringer solution containing either 7-nitroindazole (NIZ; n=3 per frequency) or aminoguanidine (AMG, n=3 per frequency). Forces are expressed as percentages of maximal tetanic force (PO).
Fiber bundles were isolated from rat diaphragm and studied using methods described in the description of FIG. 3. Data are mean forces (±SE) developed at 40 Hz by fiber bundles (n=5 or 6/group) treated with NLA (transcribed from FIG. 4B), NLA plus dipyramidole (DPM; phosphodiesterase inhibitor) 10 uM, 8-bromo-cGMP (BGMP; exogenous CGMP analogue), or DPM plus BGMP. Forces are expressed as percentages of the average force developed at 40 Hz by time- and stimulus-matched control muscle (shown±SE by horizontal dashed lines).

[2] = test system: rat diaphragm fiber bundles; experiment: Force-frequency relationship (isometric force) of isolated diaphragm fiber bundles; assay type: cell-based; details: for contractile increases (force-frequency relationship): same dose range as NIZ (100 uM-1 mM)
Procedure: FIGS. 3A and 3B. Skeletal muscle contractile properties are related to NOS activity Muscles (Soleus, n=6; DPH, diaphragm fiber bundles, n=7; EDL, extensor digitorum longus, n=5) were surgically isolated from deeply anesthetized rats, mounted in vitro at optimal length, and incubated at 37° C. in oxygenated buffered Krebs-Ringer solution containing d-tubocurarine 25 uM. Direct field stimulation (0.2 ms pulses, 250 ms train duration, supramaximal voltage) was used to evoke twitch (1 Hz) and tetanic (15, 30, 40, 50, 80, 120, 200 Hz) contractions. Isometric force was measured. Upper panel (A) depicts the average forces (+/-SE) developed at frequencies of 1-200 Hz. Tetanic stimulation at any submaximal frequency (15-150 Hz) evoked different amounts of force production among the muscles (Soleus>DPH>EDL). A vertical dotted line identifies the frequency (40 Hz) used in comparisons of NOS activity.
FIGS. 4A and 4B. Endogenous NO depresses contractile function. Fiber bundles were isolated from rat diaphragm and studied using methods described in FIG. 3. Panel A depicts the average forces (+SE) developed at stimulus frequencies of 1-120 Hz by muscles incubated in Krebs-Ringer solution containing either 7-nitroindazole (NIZ; n=3 per frequency) or aminoguanidine (AMG, n=3 per frequency). Forces are expressed as percentages of maximal tetanic force (PO).

[3] = test system: b-NOS; details: Moore et al.; cited from earlier work
[4] = test system: other NOS isoforms; details: Misko et al. 1993; cited from earlier work

OCCN(CCO)c1nc(N2CCCCC2)c2nc(N(CCO)CCO)nc(N3CCCCC3)c2n1 [DPM, dipyridamole]
effect on contractile increases caused by NOS inhibition ([1]; 40 Hz, FIG. 5): reversed

N=C(N)NCCC[C@H](N)C(=O)O [L-arginine]
contractile increases (force-frequency relationship) [2]: not

O=[N+]([O-])c1cccc2cn[nH]c12 [NIZ, 7-nitroindazole]
NOS isoform specificity [3]: b-NOS specific inhibitor | effect on contractile function (force-frequency relationship) ([2]; 100 uM, p<0.05): Significant effects | effect on contractile function (force-frequency curve) ([2]; 1 mM, FIG. 4A): profoundly influenced contractile function, causing the diaphragm force-frequency curve to closely approximate that of the soleus | shift of the diaphragm force-frequency relationship ([2]; 1 mM, FIG. 4A, repeated measures ANOVA): shifted the diaphragm force-frequency relationship up and to the left (p<0.0001 by repeated measures ANOVA) such that it was indistinguishable from the relationship measured in untreated soleus

N=C(N)NN [AMG, aminoguanidine]
NOS isoform selectivity [4]: relative selectivity towards other NOS isoforms | contractile increases (force-frequency relationship) [2]: Similar, albeit smaller, contractile increases

CN(C)c1ccc2nc3ccc(=[N+](C)C)cc-3sc2c1 [methylene blue]
force production during submaximal tetanic contraction ([1]; 10 uM, p<0.001, data not shown): increased force production

Nc1nc2c(nc(Br)n2[C@@H]2O[C@@H]3COP(=O)(O)O[C@H]3[C@H]2O)c(=O)[nH]1 [BGMP, 8-bromo-cGMP]
effect on contractile increases caused by NOS inhibition ([1]; 40 Hz, FIG. 5): reversed | force developed at 40 Hz, compared with control ([1]; NLA-treated bundles, DPM 10 uM, FIG. 5, p<0.0001): greater than control

Hemoglobin
force production during submaximal tetanic contraction ([1]; 40 Hz, 50 uM, n=5, p=0.052): enhances force production | force production during submaximal tetanic contraction ([1]; 40 Hz, 50-250 uM, n=10, p<0.001): enhances force production

CC(=O)N[C@@H](CSN=O)C(=O)O [SNAC, S-nitroso-N-acetylcysteine]
contractile function with exogenous NO donor ([1]; 100 uM, FIG. 4B): depressing contractile function | force developed at 40 Hz, compared with control ([1]; 40 Hz, SNAC 100 uM, NP 100 uM, NLA 10 mM, FIG. 4B): not different from control
